Molecular target: recombinant HCV RNA-dependent RNA polymerase (NS5B protein) (Hepatitis C virus genotype 1b, UniProt P26663)
Assay: biochemical
Design: species or system HCV-Bk strain
Settings: not given

Chain of recombinant HCV RNA-dependent RNA polymerase (NS5B protein) (P26663 2420-3010 limits assumed): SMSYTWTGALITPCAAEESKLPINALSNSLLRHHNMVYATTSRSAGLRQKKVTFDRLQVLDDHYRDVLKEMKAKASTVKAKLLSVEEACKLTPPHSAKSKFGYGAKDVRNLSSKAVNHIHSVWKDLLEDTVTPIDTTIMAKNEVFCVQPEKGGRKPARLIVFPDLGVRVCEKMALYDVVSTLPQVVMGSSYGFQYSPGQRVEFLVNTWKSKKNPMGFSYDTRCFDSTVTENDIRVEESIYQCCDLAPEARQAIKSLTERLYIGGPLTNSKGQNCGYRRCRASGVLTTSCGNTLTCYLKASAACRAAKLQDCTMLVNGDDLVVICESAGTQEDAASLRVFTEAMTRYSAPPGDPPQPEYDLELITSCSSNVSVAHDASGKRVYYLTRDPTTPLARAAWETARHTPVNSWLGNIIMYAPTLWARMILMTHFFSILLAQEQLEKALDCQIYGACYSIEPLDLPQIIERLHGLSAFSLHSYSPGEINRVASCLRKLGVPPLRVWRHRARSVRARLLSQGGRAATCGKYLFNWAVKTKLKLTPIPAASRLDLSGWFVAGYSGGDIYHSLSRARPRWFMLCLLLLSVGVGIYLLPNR

`CC1CCC(C(=O)N(c2cc(-c3cccc(F)c3)sc2C(=O)O)C2CCC(O)CC2)CC1` (stereo not shown) [Compound 51, 5-(3-fluoro-phenyl)-3-[(4-hydroxy-cyclohexyl)-(4-methyl-cyclohexanecarbonyl)-amino]-thiophene-2-carboxylic acid] and `C[C@H]1CC[C@H](C(=O)N(c2cc(-c3ccc(F)cc3)sc2C(=O)O)[C@H]2CC[C@H](O)CC2)CC1` [Compound 50, 5-(4-fluoro-phenyl)-3-[(4-hydroxy-cyclohexyl)-(4-methyl-cyclohexanecarbonyl)-amino]-thiophene-2-carboxylic acid] cannot be ordered by IC50: less than 5 µM for the first, less than 5 µM for the second.

`CON=C1CCC(N(C(=O)C2CCC(C)CC2)c2cc(-c3ccccc3)sc2C(=O)O)CC1` (stereo not shown) [Compound 25, 3-[(4-methoxyimino-cyclohexyl)-(4-methyl-cyclohexanecarbonyl)-amino]-5-phenyl-thiophene-2-carboxylic acid] and `CC1CCC(C(=O)N(c2cc(-c3ccccc3)sc2C(=O)O)C2CCC(=O)CC2)CC1` (stereo not shown) [Compound 13, 3-[(4-methyl-cyclohexanecarbonyl)-(4-oxo-cyclohexyl)-amino]-5-phenyl-thiophene-2-carboxylic acid] cannot be ordered by IC50: less than 5 µM for the first, less than 5 µM for the second.

`CC1CCC(C(=O)N(c2cc(-c3ccccc3)sc2C(=O)O)C2CCN(C#N)CC2)CC1` (stereo not shown) [Compound 77, 3-[(1-cyano-piperidin-4-yl)-(4-methyl-cyclohexanecarbonyl)-amino]-5-phenyl-thiophene-2-carboxylic acid] and `CC(=O)N1CCC(N(C(=O)C2CCC(C)CC2)c2cc(-c3ccccc3)sc2C(=O)O)CC1` (stereo not shown) [Compound 48, 3-[(1-acetyl-piperidin-4-yl)-(4-methyl-cyclohexanecarbonyl)-amino]-5-phenyl-thiophene-2-carboxylic acid] cannot be ordered by IC50: less than 5 µM for the first, less than 5 µM for the second.

`CC1=CCC(C(=O)N(c2cc(-c3ccc(F)cc3)sc2C(=O)O)C(C)C)CC1` (stereo not shown) [Compound 53, 5-(4-fluoro-phenyl)-3-[isopropyl-(4-methyl-cyclohex-3-enecarbonyl)-amino]-thiophene-2-carboxylic acid] and `CC1=CCC(C(=O)N(c2cc(-c3ccccc3)sc2C(=O)O)C(C)C)CC1` (stereo not shown) [Compound 17, 3-[isopropyl-(4-methyl-cyclohex-3-enecarbonyl)-amino]-5-phenyl-thiophene-2-carboxylic acid] cannot be ordered by IC50: less than 5 µM for the first, less than 5 µM for the second.

`CC1CCC(C(=O)N(Cc2cccnc2)c2cc(-c3ccccc3)sc2C(=O)O)CC1` (stereo not shown) [Compound 3, 3-[(4-methyl-cyclohexanecarbonyl)-pyridin-3-ylmethyl-amino]-5-phenyl-thiophene-2-carboxylic acid] and `CC1CCC(C(=O)N(CC2CCCNC2)c2cc(-c3ccccc3)sc2C(=O)O)CC1` (stereo not shown) [Compound 1, 3-{[(2-carboxy-5-phenyl-thiophen-3-yl)-(4-methyl-cyclohexanecarbonyl)-amino]-methyl}-piperidinium; trifluoro-acetate] cannot be ordered by IC50: less than 5 µM for the first, less than 5 µM for the second.

`COc1ccc(-c2cc(N(C(=O)C3CCC(C)CC3O)C(C)C)c(C(=O)O)s2)cc1` (stereo not shown) [Compound 62, 3-[(2-hydroxy-4-methyl-cyclohexanecarbonyl)-isopropyl-amino]-5-(4-methoxy-phenyl)-thiophene-2-carboxylic acid] and `CC1CCC(C(=O)N(c2cc(-c3cccc(F)c3)sc2C(=O)O)C(C)C)C(O)C1` (stereo not shown) [Compound 44, 5-(3-fluoro-phenyl)-3-[(2-hydroxy-4-methyl-cyclohexanecarbonyl)-isopropyl-amino]-thiophene-2-carboxylic acid] cannot be ordered by IC50: less than 5 µM for the first, less than 5 µM for the second.

`CNC(=O)N1CCC(N(C(=O)C2CCC(C)CC2)c2cc(-c3ccccc3)sc2C(=O)O)CC1` (stereo not shown) [Compound 71, 3-[(1-methylcarbamoyl-piperidin-4-yl)-(4-methyl-cyclohexanecarbonyl)-amino]-5-phenyl-thiophene-2-carboxylic acid] and `CC1CCC(C(=O)N(c2cc(-c3ccccc3)sc2C(=O)O)C2CCN(C(N)=O)CC2)CC1` (stereo not shown) [Compound 81, 3-[(1-carbamoyl-piperidin-4-yl)-(4-methyl-cyclohexanecarbonyl)-amino]-5-phenyl-thiophene-2-carboxylic acid] cannot be ordered by IC50: less than 5 µM for the first, less than 5 µM for the second.

`C[C@H]1CC[C@H](C(=O)N(c2cc(-c3ccccc3)sc2C(=O)O)C2CCSCC2)CC1` [Compound 34, 3-[(trans-4-Methyl-cyclohexanecarbonyl)-(tetrahydro-thiopyran-4-yl)-amino]-5-phenyl-thiophene-2-carboxylic acid] and `C[C@H]1CC[C@H](C(=O)N(c2cc(-c3ccccc3)sc2C(=O)O)[C@H]2CCC[C@@H](O)C2)CC1` (stereo in doubt) [Compound 87, 3-[(3-hydroxy-cyclohexyl)-(4-methyl-cyclohexanecarbonyl)-amino]-5-phenyl-thiophene-2-carboxylic acid] cannot be ordered by IC50: less than 5 µM for the first, less than 5 µM for the second.

`CC1CCC(C(=O)N(c2cc(-c3ccccc3)sc2C(=O)O)[C@H]2CC[C@@H](C(=O)O)CC2)CC1` (stereo partly shown) [Compound 78, 3-[(4-carboxy-cyclohexyl)-(4-methyl-cyclohexanecarbonyl)-amino]-5-phenyl-thiophene-2-carboxylic acid] and `C[C@H]1CC[C@H](C(=O)N(c2cc(-c3ccccc3)sc2C(=O)O)C2CCS(=O)(=O)CC2)CC1` [Compound 37, 3-[(1,1-Dioxo-tetrahydro-thiopyran-4-yl)-(trans-4-methyl-cyclohexanecarbonyl)-amino]-5-phenyl-thiophene-2-carboxylic acid] cannot be ordered by IC50: less than 5 µM for the first, less than 5 µM for the second.

First: CC1CCC(F)(C(=O)N(c2cc(-c3ccccc3)sc2C(=O)O)C(C)C)CC1 (stereo not drawn) [Compound 9, Trans-3-[(1-Fluoro-4-methyl-cyclohexanecarbonyl)-isopropyl-amino]-5-phenyl-thiophene-2-carboxylic acid]
Second: CC1CCC(C(=O)N(c2cc(-c3ccccc3)sc2C(=O)O)C(C)C)OC1 (stereo not drawn) [Compound 29, 3-[Isopropyl-(cis-5-methyl-tetrahydro-pyran-2-carbonyl)-amino]-5-phenyl-thiophene-2-carboxylic acid]
The IC50 of the first is lower: less than 5 µM for the first, 5 to 20 µM for the second.

`COc1ccc(-c2cc(N(C(=O)C3CCC(C)CC3)C3CCC(O)CC3)c(C(=O)O)s2)cc1` (stereo not shown) [Compound 60, 3-[(4-hydroxy-cyclohexyl)-(4-methyl-cyclohexanecarbonyl)-amino]-5-(4-methoxy-phenyl)-thiophene-2-carboxylic acid] and `CC1CCC(C(=O)N(c2cc(-c3ccc(Cl)cc3)sc2C(=O)O)C2CCC(O)CC2)CC1` (stereo not shown) [Compound 59, 5-(4-chloro-phenyl)-3-[(4-hydroxy-cyclohexyl)-(4-methyl-cyclohexanecarbonyl)-amino]-thiophene-2-carboxylic acid] cannot be ordered by IC50: less than 5 µM for the first, less than 5 µM for the second.

`CC(=O)c1ccc(-c2cc(N(C(=O)[C@H]3CC[C@H](C)CC3)[C@H]3CC[C@H](O)CC3)c(C(=O)O)s2)s1` [Compound 80, 5′-acetyl-4-[(4-hydroxy-cyclohexyl)-(4-methyl-cyclohexanecarbonyl)-amino]-[2,2′]bithiophenyl-5-carboxylic acid] and `CC1CCC(C(=O)N(c2cc(-c3ccc(C#N)cc3)sc2C(=O)O)C2CCC(O)CC2)CC1` (stereo not shown) [Compound 61, 5-(4-cyano-phenyl)-3-[(4-hydroxy-cyclohexyl)-(4-methyl-cyclohexanecarbonyl)-amino]-thiophene-2-carboxylic acid] cannot be ordered by IC50: less than 5 µM for the first, less than 5 µM for the second.

`CS(=O)(=O)N1CCC(N(c2cc(-c3ccccc3)sc2C(=O)O)C(=O)[C@H]2CC[C@H](C)CC2)CC1` [Compound 70, 3-[(1-methanesulfonyl-piperidin-4-yl)-(4-methyl-cyclohexanecarbonyl)-amino]-5-phenyl-thiophene-2-carboxylic acid] and `CC1CCC(C(=O)N(CC2CCCN(C)C2)c2cc(-c3ccccc3)sc2C(=O)O)CC1` (stereo not shown) [Compound 35, 3-{[(2-carboxy-5-phenyl-thiophen-3-yl)-(4-methyl-cyclohexanecarbonyl)-amino]-methyl}-1-methyl-piperidinium chloride] cannot be ordered by IC50: less than 5 µM for the first, less than 5 µM for the second.

`CC1CCC(C(=O)N(CC2CCCN(C)C2)c2cc(-c3ccc(F)cc3)sc2C(=O)O)CC1` (stereo not shown) [Compound 69, 5-(4-fluorophenyl)-((4-methyl-cyclohexanecarbonyl)-1-(methyl-piperidin-3-ylmethyl)-amino)-thiophene-2-carboxylic acid] and `COc1ccc(CN2CCC(N(c3cc(-c4ccccc4)sc3C(=O)O)C(=O)[C@H]3CC[C@H](C)CC3)CC2=O)cc1` (stereo partly shown) [Compound 42, 3-[[1-(4-methoxy-benzyl)-2-oxo-piperidin-4-yl]-(4-methyl-cyclohexanecarbonyl)-amino]-5-phenyl-thiophene-2-carboxylic acid] cannot be ordered by IC50: less than 5 µM for the first, less than 5 µM for the second.

`CC1CCC(C(=O)N(c2cc(-c3ccccc3)sc2C(=O)O)C(C)CN=[N+]=[N-])CC1` (stereo not shown) [Compound 32, 3-[(2-azido-1-methyl-ethyl)-(4-methyl-cyclohexanecarbonyl)-amino]-5-phenyl-thiophene-2-carboxylic acid] and `CC1CCC(C(=O)N(c2cc(-c3ccccc3)sc2C(=O)O)C2CCOCC2)C(O)C1` (stereo not shown) [Compound 31, 3-[(2-hydroxy-4-methyl-cyclohexanecarbonyl)-(tetrahydro-pyran-4-yl)-amino]-5-phenyl-thiophene-2-carboxylic acid] cannot be ordered by IC50: less than 5 µM for the first, less than 5 µM for the second.

First: CCC(C)C(CN)N(C(=O)c1ccc(Cl)cc1Cl)c1cc(-c2ccccc2)sc1C(=O)O (stereo not shown) [Compound 20, 3-[(1-aminomethyl-2-methyl-butyl)-(2,4-dichloro-benzoyl)-amino]-5-phenyl-thiophene-2-carboxylic acid]
Second: CCN(C(=O)c1ccc(C)cc1)c1cc(-c2ccccc2)sc1C(=O)O [Compound 84, 3-[ethyl-(4-methyl-benzoyl)-amino]-5-phenyl-thiophene-2-carboxylic acid]
The IC50 of the first is higher: 5 to 20 µM for the first, less than 5 µM for the second. The second is the more potent here.

`CC(C)N(C(=O)C1=CC[C@H](C)CC1)c1cc(-c2ccc(F)cc2)sc1C(=O)O` [Compound 26, (4R)-5-(4-Fluoro-phenyl)-3-[isopropyl-(4-methyl-cyclohex-1-enecarbonyl)-amino]-thiophene-2-carboxylic acid] was tested, and the IC50 was less than 5 µM.

Same assay, conditions: read-out: Activity (polymerase activity, IC50)

`CC1CCC(C(=O)N(c2cc(-c3ccccc3)sc2C(=O)O)C2CCN(C)C(=O)C2)CC1` (stereo not shown) [Compound 75, 3-[(4-methyl-cyclohexanecarbonyl)-(1-methyl-2-oxo-piperidin-4-yl)-amino]-5-phenyl-thiophene-2-carboxylic acid] gave an IC50 of less than 5 µM.
